# Experimental data taken from PMC10916402, “Meropenem-ANT3310, a unique β-lactam-β-lactamase inhibitor combination with expanded antibacterial spectrum against Gram-negative pathogens including carbapenem-resistant Acinetobacter baumannii” (Antimicrobial Agents and Chemotherapy, 2024).
# Read-outs that look alike come from different tables or passages of the source.
# Experiments:
# [1] = system: OXA-producing Enterobacterales (OXA-CRE); assay: organism not typed; format: cell-based
# Procedure: (§1) All isolates were randomly selected from the frozen culture collection of IHMA collected in 2018 and 2019. Matrix-assisted laser desorption ionization-time of flight mass spectrometry was used to confirm the identity of the organisms tested (Bruker Daltonics, Bremen, Germany).
# (§2) MICs for all antimicrobial agents were determined at IHMA by broth microdilution in accordance with both CLSI ([17]) and EUCAST ([18]) guidelines. Microtiter panels were prepared by IHMA and stored at −70°C in cation-adjusted Mueller Hinton broth (CAMHB) (Becton Dickinson). Iron-depleted CAMHB was used to test cefiderocol. Panels containing ANT3310 were prepared fresh on the day of testing. […] MIC values corresponded to the first well with no visible growth. Quality control testing was performed on each day of testing with E. coli ATCC 25922, P. aeruginosa ATCC 27853, K. pneumoniae ATCC 700603 and BAA 1705, and A. baumannii NCTC 13304. MICs were interpreted using 2023 CLSI ([17]) and EUCAST ([18]) BPs.
# [2] = system: KPC-producing Enterobacterales (KPC-CRE); assay: organism not typed; format: cell-based
# Procedure: as §1, §2
# [3] = system: A. baumannii clinical isolates; assay: Broth microdilution MIC, A. baumannii clinical isolates; format: cell-based, Acinetobacter baumannii; settings: for CLSI % Res: for MEM-ANT3310 % at ≥16 µg/mL; for MIC90: read-out: MIC90
# Procedure: as §1, §2
# [4] = system: P. aeruginosa clinical isolates; assay: Broth microdilution MIC, P. aeruginosa clinical isolates; format: cell-based, Pseudomonas aeruginosa; settings: 502 P. aeruginosa, 2019 global collection
# Procedure: as §1, §2
# [5] = system: carbapenem-resistant Acinetobacter baumannii (CRAB) clinical isolates; assay: Broth microdilution MIC, CRAB isolates; format: cell-based; settings: for Number of isolates inhibited at MIC of 0.25 µg/mL / Number of isolates inhibited at MIC of 0.5 µg/mL / Number of isolates inhibited at MIC of 1 µg/mL / Number of isolates inhibited at MIC of 2 µg/mL / Number of isolates inhibited at MIC of 4 µg/mL / Number of isolates inhibited at MIC of 8 µg/mL / Number of isolates inhibited at MIC of 16 µg/mL / Number of isolates inhibited at MIC of 32 µg/mL / Number of isolates inhibited at MIC of >32 µg/mL / Number of isolates inhibited at MIC of ≤0.125 µg/mL / MIC50 / MIC90: CRAB (MEM MICs >4 µg/mL); for CLSI % Res / CLSI % Sus: CRAB, CLSI BP; for CLSI % Res: for MEM-ANT3310 % at ≥16 µg/mL; for CLSI % Sus: for MEM-ANT3310 % inhibited at ≤8 µg/mL; for MIC90: read-out: MIC90
# Procedure: as §1, §2
# [6] = 252 OXA-producing Enterobacterales, EUCAST BP
# [7] = 180 KPC-producing Enterobacterales, EUCAST BP
# [8] = 2018 Global collection, All A. baumannii, N 500
# [9] = 2019 Global collection, All A. baumannii, N 405
smiles,measurement,setting,value
"CC(C)(O/N=C(\C(=O)N[C@@H]1C(=O)N2C(C(=O)[O-])=C(C[N+]3(CCNC(=O)c4ccc(O)c(O)c4Cl)CCCC3)CS[C@H]12)c1csc(N)n1)C(=O)O [Cefiderocol, cefiderocol]",MIC50,[1],1 µg/mL
same,MIC90,[1],4 µg/mL
same,CLSI % Res,"[1]; 252 OXA-producing Enterobacterales, CLSI BP, for MEM-ANT3310 % at ≥16 µg/mL",0.4%
same,CLSI % Sus,"[1]; 252 OXA-producing Enterobacterales, CLSI BP, for MEM-ANT3310 % inhibited at ≤8 µg/mL",98.8%
same,EUCAST % Res,[1]; [6],21.8%
same,EUCAST % Sus,[1]; [6],78.2%
same,MIC50,[2],1 µg/mL
same,MIC90,[2],4 µg/mL
same,CLSI % Res,"[2]; 180 KPC-producing Enterobacterales, CLSI BP, for MEM-ANT3310 % at ≥16 µg/mL",0%
same,CLSI % Sus,"[2]; 180 KPC-producing Enterobacterales, CLSI BP, for MEM-ANT3310 % inhibited at ≤8 µg/mL",100%
same,EUCAST % Res,[2]; [7],27.2%
same,EUCAST % Sus,[2]; [7],72.8%
same,Number of isolates inhibited at MIC of 0.25 µg/mL,[3]; [8],83
same,Number of isolates inhibited at MIC of 0.5 µg/mL,[3]; [8],111
same,Number of isolates inhibited at MIC of 1 µg/mL,[3]; [8],78
same,Number of isolates inhibited at MIC of 2 µg/mL,[3]; [8],52
same,Number of isolates inhibited at MIC of 4 µg/mL,[3]; [8],24
same,Number of isolates inhibited at MIC of 8 µg/mL,[3]; [8],3
same,Number of isolates inhibited at MIC of 16 µg/mL,[3]; [8],3
same,Number of isolates inhibited at MIC of 32 µg/mL,[3]; [8],2
same,Number of isolates inhibited at MIC of >32 µg/mL,[3]; [8],21
same,Number of isolates inhibited at MIC of ≤0.125 µg/mL,[3]; [8],123
same,CLSI % Res,"[3]; 2018 Global collection, All A. baumannii, N 500, CLSI BP",10.6%
same,MIC50,[3]; [9],0.5 µg/mL
same,Number of isolates inhibited at MIC of 0.25 µg/mL,[3]; [9],72
same,Number of isolates inhibited at MIC of 0.5 µg/mL,[3]; [9],99
same,Number of isolates inhibited at MIC of 1 µg/mL,[3]; [9],64
same,Number of isolates inhibited at MIC of 2 µg/mL,[3]; [9],35
same,Number of isolates inhibited at MIC of 4 µg/mL,[3]; [9],19
same,Number of isolates inhibited at MIC of 8 µg/mL,[3]; [9],12
same,Number of isolates inhibited at MIC of 16 µg/mL,[3]; [9],8
same,Number of isolates inhibited at MIC of 32 µg/mL,[3]; [9],2
same,Number of isolates inhibited at MIC of >32 µg/mL,[3]; [9],18
same,Number of isolates inhibited at MIC of ≤0.125 µg/mL,[3]; [9],76
same,CLSI % Res,"[3]; 2019 Global collection, All A. baumannii, N 405, CLSI BP",14.6%
same,CLSI % Sus,"[3]; 2019 Global collection, All A. baumannii, N 405, CLSI BP, for MEM-ANT3310 % inhibited at ≤8 µg/mL",76.8%
same,MIC50,"[3]; Acinetobacter baumannii, 2018 Global collection, All A. baumannii, N 500, read-out: MIC50",0.5 µg/mL
same,MIC90,"[3]; Acinetobacter baumannii, 2018 Global collection, All A. baumannii, N 500",4 µg/mL
same,MIC90,"[3]; Acinetobacter baumannii, 2019 Global collection, All A. baumannii, N 405",4 µg/mL
same,MIC90,"[3]; Acinetobacter baumannii, A. baumannii, one or both of the 2018/2019 collections",4 µg/mL
same,Number of isolates inhibited at MIC of 0.25 µg/mL,[4],125
same,Number of isolates inhibited at MIC of 0.5 µg/mL,[4],92
same,Number of isolates inhibited at MIC of 1 µg/mL,[4],33
same,Number of isolates inhibited at MIC of 2 µg/mL,[4],16
same,Number of isolates inhibited at MIC of 4 µg/mL,[4],7
same,Number of isolates inhibited at MIC of 8 µg/mL,[4],1
same,Number of isolates inhibited at MIC of 32 µg/mL,[4],1
same,Number of isolates inhibited at MIC of ≤0.125 µg/mL,[4],227
same,MIC50,"[4]; Pseudomonas aeruginosa, read-out: MIC50",0.25 µg/mL
same,MIC90,"[4]; Pseudomonas aeruginosa, read-out: MIC90",1 µg/mL
same,Number of isolates inhibited at MIC of 0.25 µg/mL,"[5]; 2018 Global collection, N 363",63
same,Number of isolates inhibited at MIC of 0.5 µg/mL,"[5]; 2018 Global collection, N 363",99
same,Number of isolates inhibited at MIC of 1 µg/mL,"[5]; 2018 Global collection, N 363",72
same,Number of isolates inhibited at MIC of 2 µg/mL,"[5]; 2018 Global collection, N 363",49
same,Number of isolates inhibited at MIC of 4 µg/mL,"[5]; 2018 Global collection, N 363",21
same,Number of isolates inhibited at MIC of 8 µg/mL,"[5]; 2018 Global collection, N 363",3
same,Number of isolates inhibited at MIC of 16 µg/mL,"[5]; 2018 Global collection, N 363",3
same,Number of isolates inhibited at MIC of 32 µg/mL,"[5]; 2018 Global collection, N 363",2
same,Number of isolates inhibited at MIC of >32 µg/mL,"[5]; 2018 Global collection, N 363",17
same,Number of isolates inhibited at MIC of ≤0.125 µg/mL,"[5]; 2018 Global collection, N 363",34
same,CLSI % Res,"[5]; 2018 Global collection, N 363",12.7%
same,CLSI % Sus,"[5]; 2018 Global collection, N 363",73.8%
same,MIC50,"[5]; 2019 Global collection, N 340",0.5 µg/mL
same,Number of isolates inhibited at MIC of 0.25 µg/mL,"[5]; 2019 Global collection, N 340",64
same,Number of isolates inhibited at MIC of 0.5 µg/mL,"[5]; 2019 Global collection, N 340",93
same,Number of isolates inhibited at MIC of 1 µg/mL,"[5]; 2019 Global collection, N 340",61
same,Number of isolates inhibited at MIC of 2 µg/mL,"[5]; 2019 Global collection, N 340",34
same,Number of isolates inhibited at MIC of 4 µg/mL,"[5]; 2019 Global collection, N 340",19
same,Number of isolates inhibited at MIC of 8 µg/mL,"[5]; 2019 Global collection, N 340",9
same,Number of isolates inhibited at MIC of 16 µg/mL,"[5]; 2019 Global collection, N 340",8
same,Number of isolates inhibited at MIC of 32 µg/mL,"[5]; 2019 Global collection, N 340",2
same,Number of isolates inhibited at MIC of >32 µg/mL,"[5]; 2019 Global collection, N 340",18
same,Number of isolates inhibited at MIC of ≤0.125 µg/mL,"[5]; 2019 Global collection, N 340",32
same,CLSI % Res,"[5]; 2019 Global collection, N 340",16.5%
same,CLSI % Sus,"[5]; 2019 Global collection, N 340",73.5%
same,MIC50,"[5]; Acinetobacter baumannii, 2018 Global collection, N 363, read-out: MIC50",0.5 µg/mL
same,MIC90,"[5]; Acinetobacter baumannii, 2018 Global collection, N 363",4 µg/mL
same,MIC90,"[5]; Acinetobacter baumannii, 2019 Global collection, N 340",8 µg/mL
